{"source": "patent US20250090557A1", "about": "(priority 2020, published 2025)", "key": {"IL-6": {"tested_on": "IL-6", "format": "cell-based, human"}, "Keap1": {"tested_on": "Keap1", "assay": "Keap1 protein levels in Calu3 cells (flow cytometry)", "format": "cell-based, human", "details": "infected and uninfected Calu3, pretreatment, data not shown"}, "HO-1": {"tested_on": "HO-1", "assay": "HO-1 protein levels in Calu3 cells (flow cytometry)", "format": "cell-based, human"}, "Nrf2": {"tested_on": "Nrf2", "assay": "Nrf2 protein levels in Calu3 cells (flow cytometry)", "format": "cell-based, human", "details": "infected and uninfected Calu3, pretreatment, data not shown"}, "SARS-CoV-2": {"tested_on": "SARS-CoV-2", "format": "cell-based"}, "uninfected cultures": {"tested_on": "uninfected cultures", "details": "10-1000 nM"}, "[1]": {"details": "Calu3, 0.25 μM pretreatment, data not shown"}}, "note": "Entries after “also recorded” stand apart in the source; their conditions may differ. Where a name gives a salt, the structure may show the parent alone. Read-outs that look alike come from different tables or passages of the source."}
{"compound": "COC(=O)/C=C/C(=O)OC", "note": "[DMF, dimethyl fumarate]", "values": [{"measurement": "release of IL-6 from infected cells (ELISA)", "setting": "IL-6; Calu3, pretreatment 10 μM for 24 h", "value": "reduction in subsequent release of IL-6"}, {"measurement": "protein levels of Keap", "setting": "Keap1", "value": "reduced protein levels of Keap"}, {"measurement": "HO-1 protein levels", "setting": "HO-1; Calu3, pretreatment 10 μM, data not shown", "value": "increased HO-1 protein levels"}, {"measurement": "cytotoxicity (XTT assay)", "setting": "Calu3 cells; uninfected Calu3, 100 μM, 24 h", "value": "cytotoxic"}, {"measurement": "protein levels of Nrf2", "setting": "Nrf2", "value": "did not impact protein levels of Nrf2"}, {"measurement": "viral titers / antiviral effect vs vehicle control (TCID50)", "setting": "SARS-CoV-2; Calu3, 10 μM DMF alone, FIG. 11-a", "value": "did not produce an observable antiviral effect; also recorded: did not reduce viral titers"}, {"measurement": "release of progeny SARS-CoV-2 virus particles to the cell supernatant (TCID50 assay)", "setting": "SARS-CoV-2; Calu3, pretreatment with 10 μM DMF for 24 h, FIG. 5-a", "value": "reduction in subsequent release of progeny SARS-CoV-2 virus particles"}]}
{"compound": "CCCCCCCCCC[P+](c1ccccc1)(c1ccccc1)c1ccccc1.[Br-]", "note": "[DTPP]", "values": [{"measurement": "cytotoxicity (XTT assay)", "setting": "Calu3 cells; uninfected cells, 1000 nM", "value": "not cytotoxic"}, {"measurement": "antiviral activity (TCID50 assay)", "setting": "SARS-CoV-2; Calu3, 1000 nM", "value": "Antiviral activity was observed"}]}
{"compound": "brusatol", "values": [{"measurement": "effect on the anti-inflammatory effect of Mito-MES (IL-6 ELISA)", "setting": "IL-6; Calu3, 0.25 μM", "value": "inhibited the anti-inflammatory effect of Mito-MES"}, {"measurement": "release of IL-6 to the cell supernatant from infected cells (ELISA)", "setting": "IL-6; Calu3, pretreatment 0.25 μM", "value": "significantly increased subsequent release of IL-6"}, {"measurement": "protein levels of Keap", "setting": "Keap1", "value": "increased protein levels of Keap"}, {"measurement": "HO-1 protein levels", "setting": "HO-1", "value": "increased the HO-1 protein levels"}, {"measurement": "impact on the effect of Mito-MES on HO-1 protein levels", "setting": "HO-1; Calu3, 0.25 μM, data not shown", "value": "did not have an impact on the effect of Mito-MES on HO-1 protein levels"}, {"measurement": "protein levels of Nrf2", "setting": "Nrf2", "value": "reduced protein levels of Nrf2"}, {"measurement": "effect on the antiviral effect of DMF and Mito-MES (TCID50)", "setting": "SARS-CoV-2; Calu3, 0.25 μM pretreatment for 24 h", "value": "inhibited the antiviral effect of both DMF alone and Mito-MES"}, {"measurement": "SARS-CoV-2 infection (flow cytometry)", "setting": "SARS-CoV-2; [1]", "value": "directly enhanced SARS-CoV-2 infection"}, {"measurement": "effect on the reduction in percent infected cells induced by Mito-MES and DMF", "setting": "SARS-CoV-2; [1]", "value": "attenuated the reduction in the percent of infected Calu3 cells"}, {"measurement": "release of progeny SARS-CoV-2 virus particles to the cell supernatant (TCID50)", "setting": "SARS-CoV-2; Calu3, pretreatment with 0.25 μM", "value": "significantly increased subsequent release of progeny SARS-CoV-2 virus particles"}]}
{"compound": "CC1(C)CC(NC(=O)C[P+](c2ccccc2)(c2ccccc2)c2ccccc2)CC(C)(C)N1[O]", "note": "[Mito-TEMPO]", "values": [{"measurement": "cytotoxicity (XTT assay)", "setting": "uninfected cultures", "value": "no observed cytotoxicity"}]}
